ChEMBL document CHEMBL3797052 (Eur J Med Chem, 2016)

test system: not listed separately; experiment: Antiproliferative activity against human RPMI8226 cells assessed as growth inhibition after 48 hrs by sulforhodamine B assay; type: functional; conditions: RPMI-8226, 48 h

With `CNC(=O)c1cc(Oc2ccc3nc(NC(=O)Nc4cc(C(F)(F)F)cc(C(F)(F)F)c4)sc3c2)ccn1` as the compound, how does the LC50 read?
The LC50 was 76300 nM.

And the TGI?
Its TGI is 3810 nM.

test system: NCI-H522; experiment: Antiproliferative activity against human NCI-H522 cells assessed as cell growth at 10^-4 M after 48 hrs by sulforhodamine B assay; type: functional; conditions: NCI-H522, 48 h, read-out: Activity

With `CNC(=O)c1cc(Oc2ccc3nc(NC(=O)Nc4cc(C(F)(F)F)cc(C(F)(F)F)c4)sc3c2)ccn1` as the compound, how does the growth at 100 µM read?
Its growth at 100 µM is -67%.

test system: not listed separately; experiment: Antiproliferative activity against human DU145 cells assessed as cell growth at 10^-8 M after 48 hrs by sulforhodamine B assay; type: functional; conditions: DU-145, 48 h, read-out: Activity

Which growth at 0.01 µM does the source give for `CNC(=O)c1cc(Oc2ccc3nc(NC(=O)Nc4cc(C(F)(F)F)cc(C(F)(F)F)c4)sc3c2)ccn1` here?
Its growth at 0.01 µM is 101%.

test system: not listed separately; experiment: Antiproliferative activity against human PC3 cells assessed as growth inhibition after 48 hrs by sulforhodamine B assay; type: functional; conditions: PC-3, 48 h

With `CNC(=O)c1cc(Oc2ccc3nc(NC(=O)Nc4cc(C(F)(F)F)cc(C(F)(F)F)c4)sc3c2)ccn1` as the compound, how does the GI50 read?
Its GI50 is 611 nM.

And the LC50?
Its LC50 is 7070 nM.

And the TGI?
Its TGI is 2290 nM.

test system: not listed separately; experiment: Antiproliferative activity against human HL-60(TB) cells assessed as cell growth at 10^-8 M after 48 hrs by sulforhodamine B assay; type: functional; conditions: HL-60, 48 h, read-out: Activity

With `CNC(=O)c1cc(Oc2ccc3nc(NC(=O)Nc4cc(C(F)(F)F)cc(C(F)(F)F)c4)sc3c2)ccn1` as the compound, how does the growth at 0.01 µM read?
Its growth at 0.01 µM is 110%.

test system: not listed separately; experiment: Antiproliferative activity against human HOP92 cells assessed as growth inhibition after 48 hrs by sulforhodamine B assay; type: functional; conditions: HOP-92, 48 h

Which GI50 does the source give for `CNC(=O)c1cc(Oc2ccc3nc(NC(=O)Nc4cc(C(F)(F)F)cc(C(F)(F)F)c4)sc3c2)ccn1` here?
Its GI50 is 301 nM.

What about the LC50 of the same compound?
The LC50 was 5140 nM.

And the TGI?
The TGI was 949 nM.

test system: CCRF-CEM; experiment: Antiproliferative activity against human CCRF-CEM cells assessed as cell growth at 10^-4 M after 48 hrs by sulforhodamine B assay; type: functional; conditions: read-out: Activity

Which growth at 100 µM does the source give for `CNC(=O)c1cc(Oc2ccc3nc(NC(=O)Nc4cc(C(F)(F)F)cc(C(F)(F)F)c4)sc3c2)ccn1` here?
The growth at 100 µM was -36%.

test system: not listed separately; experiment: Antiproliferative activity against human NCI-ADR-RES cells assessed as growth inhibition after 48 hrs by sulforhodamine B assay; type: functional; conditions: not given

For `CNC(=O)c1cc(Oc2ccc3nc(NC(=O)Nc4cc(C(F)(F)F)cc(C(F)(F)F)c4)sc3c2)ccn1`, which GI50 is on record?
The GI50 was 1270 nM.

What about the TGI of the same compound?
The TGI was 3190 nM.

test system: Malme-3M; experiment: Antiproliferative activity against human MALME-3M cells assessed as cell growth at 10^-4 M after 48 hrs by sulforhodamine B assay; type: functional; conditions: read-out: Activity

Which growth at 100 µM does the source give for `CNC(=O)c1cc(Oc2ccc3nc(NC(=O)Nc4cc(C(F)(F)F)cc(C(F)(F)F)c4)sc3c2)ccn1` here?
Its growth at 100 µM is -76%.

test system: not listed separately; experiment: Antiproliferative activity against human LOXIMVI cells assessed as cell growth at 10^-7 M after 48 hrs by sulforhodamine B assay; type: functional; conditions: LOX IMVI, read-out: Activity

For `CNC(=O)c1cc(Oc2ccc3nc(NC(=O)Nc4cc(C(F)(F)F)cc(C(F)(F)F)c4)sc3c2)ccn1`, which growth at 0.1 µM is on record?
The growth at 0.1 µM was 93%.

test system: K562; experiment: Antiproliferative activity against human K562 cells assessed as cell growth at 10^-4 M after 48 hrs by sulforhodamine B assay; type: functional; conditions: K562, 48 h, read-out: Activity

With `CNC(=O)c1cc(Oc2ccc3nc(NC(=O)Nc4cc(C(F)(F)F)cc(C(F)(F)F)c4)sc3c2)ccn1` as the compound, how does the growth at 100 µM read?
The growth at 100 µM was -35%.

test system: KM12; experiment: Antiproliferative activity against human KM12 cells assessed as cell growth at 10^-8 M after 48 hrs by sulforhodamine B assay; type: functional; conditions: KM12, 48 h, read-out: Activity

For `CNC(=O)c1cc(Oc2ccc3nc(NC(=O)Nc4cc(C(F)(F)F)cc(C(F)(F)F)c4)sc3c2)ccn1`, which growth at 0.01 µM is on record?
The growth at 0.01 µM was 100%.

test system: not listed separately; experiment: Antiproliferative activity against human TK10 cells assessed as cell growth at 10^-4 M after 48 hrs by sulforhodamine B assay; type: functional; conditions: TK-10, 48 h, read-out: Activity

With `CNC(=O)c1cc(Oc2ccc3nc(NC(=O)Nc4cc(C(F)(F)F)cc(C(F)(F)F)c4)sc3c2)ccn1` as the compound, how does the growth at 100 µM read?
Its growth at 100 µM is -87%.

test system: A549; experiment: Antiproliferative activity against human A549/ATCC cells assessed as growth inhibition after 48 hrs by sulforhodamine B assay; type: functional; conditions: A549, 48 h

With `CNC(=O)c1cc(Oc2ccc3nc(NC(=O)Nc4cc(C(F)(F)F)cc(C(F)(F)F)c4)sc3c2)ccn1` as the compound, how does the GI50 read?
The GI50 was 1300 nM.

And the TGI?
Its TGI is 2670 nM.

same assay, conditions: A549, 48 h, read-out: LC50 (the source's name)

For `CNC(=O)c1cc(Oc2ccc3nc(NC(=O)Nc4cc(C(F)(F)F)cc(C(F)(F)F)c4)sc3c2)ccn1`, which CC50 is on record?
Its CC50 is 5510 nM.

test system: ACHN; experiment: Antiproliferative activity against human ACHN cells assessed as cell growth at 10^-8 M after 48 hrs by sulforhodamine B assay; type: functional; conditions: read-out: Activity

With `CNC(=O)c1cc(Oc2ccc3nc(NC(=O)Nc4cc(C(F)(F)F)cc(C(F)(F)F)c4)sc3c2)ccn1` as the compound, how does the growth at 0.01 µM read?
The growth at 0.01 µM was 94%.

test system: A549; experiment: Antiproliferative activity against human A549/ATCC cells assessed as cell growth at […] after 48 hrs by sulforhodamine B assay; type: functional; conditions: A549, 48 h, read-out: Activity

For `CNC(=O)c1cc(Oc2ccc3nc(NC(=O)Nc4cc(C(F)(F)F)cc(C(F)(F)F)c4)sc3c2)ccn1`, which growth at 0.1 µM is on record?
The growth at 0.1 µM was 109%.

test system: SR; experiment: Antiproliferative activity against human SR cells assessed as cell growth at 10^-6 M after 48 hrs by sulforhodamine B assay; type: functional; conditions: read-out: Activity

For `CNC(=O)c1cc(Oc2ccc3nc(NC(=O)Nc4cc(C(F)(F)F)cc(C(F)(F)F)c4)sc3c2)ccn1`, which growth at 1 µM is on record?
Its growth at 1 µM is 34%.
